The values that follow are results of earlier work, collected in patent EP0836475B1, “CONTROLLED RELEASE FORMULATIONS FOR POORLY SOLUBLE DRUGS” (ELAN CORPORATION, Plc, priority 1995, dated 1997).

The conditions of this series: ibuprofen from Lutrol-F68.

Consider `CC(C)Cc1ccc(C(C)C(=O)O)cc1` (stereo not shown) [ibuprofen], for which the “T50 value of in vitro release” value was “approximately 30 min”.
